ChEMBL document CHEMBL3616426 (Eur J Med Chem, 2015)
Activity calls are given as the source filed them. The calls are words filed in the database; no cut-off is given here.

Tests used:
Rattus norvegicus [1] = experiment: Antiosteoporotic activity in ovariectomized Sprague-Dawley rat assessed as prevention of bone mineral density loss at 1 to 3 ug/kg, po qd measured at 6th to 18th week by micro-CT analysis relative to OVX rat; assay type: functional, organism-based
Rattus norvegicus [2] = experiment: Antiosteoporotic activity in ovariectomized Sprague-Dawley rat assessed as bone volume /tissue volume at 1 ug/kg, po qd at 6th week by micro-CT analysis (reference value: 41.33 +/- 5.04%); assay type: functional
Rattus norvegicus [3] = experiment: Antiosteoporotic activity in ovariectomized Sprague-Dawley rat assessed as bone volume /tissue volume at 1 ug/kg, po qd at 18th week by micro-CT analysis (reference value: 27.36 +/- 1.99%); assay type: functional
Rattus norvegicus [4] = experiment: Antiosteoporotic activity in ovariectomized Sprague-Dawley rat assessed as bone volume /tissue volume at 10 ug/kg, po qd at 18th week by micro-CT analysis (reference value: 27.36 +/- 1.99%); assay type: functional
Rattus norvegicus [5] = experiment: Antiosteoporotic activity in ovariectomized Sprague-Dawley rat assessed as trabecular thickness at 1 ug/kg, po qd at 6th week by micro-CT analysis (reference value: 0.086 +/- 0.0069 millimeter); assay type: functional, Trabecula
Rattus norvegicus [6] = experiment: Antiosteoporotic activity in ovariectomized Sprague-Dawley rat assessed as trabecular thickness at 3 ug/kg, po qd at 6th week by micro-CT analysis (reference value: 0.086 +/- 0.0069 millimeter); assay type: functional, Trabecula
Rattus norvegicus [7] = experiment: Antiosteoporotic activity in ovariectomized Sprague-Dawley rat assessed as trabecular thickness at 10 ug/kg, po qd at 6th week by micro-CT analysis (reference value: 0.086 +/- 0.0069 millimeter); assay type: functional, Trabecula
Rattus norvegicus [8] = experiment: Antiosteoporotic activity in ovariectomized Sprague-Dawley rat assessed as trabecular thickness at 1 ug/kg, po qd at 12th week by micro-CT analysis (reference value: 0.070 +/- 0.0063 millimeter); assay type: functional, Trabecula
Rattus norvegicus [9] = experiment: Antiosteoporotic activity in ovariectomized Sprague-Dawley rat assessed as trabecular thickness at 3 ug/kg, po qd at 18th week by micro-CT analysis (reference value: 0.103 +/- 0.0044 millimeter); assay type: functional, Trabecula
Rattus norvegicus [10] = experiment: Antiosteoporotic activity in ovariectomized Sprague-Dawley rat assessed as trabecular thickness at 10 ug/kg, po qd at 18th week by micro-CT analysis (reference value: 0.103 +/- 0.0044 millimeter); assay type: functional, Trabecula
Rattus norvegicus [11] = experiment: Antiosteoporotic activity in ovariectomized Sprague-Dawley rat assessed as trabecular separation at 1 ug/kg, po qd at 6th week by micro-CT analysis (reference value: 0.116 +/- 0.010 millimeter); assay type: functional, Trabecula
Rattus norvegicus [12] = experiment: Antiosteoporotic activity in ovariectomized Sprague-Dawley rat assessed as bone volume /tissue volume recovery at 10 ug/kg, po qd measured at 18th week by micro-CT analysis relative to SHAM control; assay type: functional
Rattus norvegicus [13] = experiment: Antiosteoporotic activity in ovariectomized Sprague-Dawley rat assessed as trabecular separation recovery at 10 ug/kg, po qd measured at 18th week by micro-CT analysis relative to SHAM control; assay type: functional, organism-based; settings: Trabecula
Rattus norvegicus [14] = experiment: Antiosteoporotic activity in ovariectomized Sprague-Dawley rat assessed as serum osteocalcin level at 10 ug/kg, po qd at 12th week by enzyme immunoassay (reference value: 1055.8 +/- 14 ng/ml); assay type: functional
Rattus norvegicus [15] = experiment: Antiosteoporotic activity in ovariectomized Sprague-Dawley rat assessed as serum osteocalcin level at 3 ug/kg, po qd at 18th week by enzyme immunoassay (reference value: 1118.9 +/- 37.77 ng/ml); assay type: functional
Rattus norvegicus [16] = experiment: Antiosteoporotic activity in ovariectomized Sprague-Dawley rat assessed as decrease in serum osteocalcin level at 10 ug/kg, po qd at 18th week by enzyme immunoassay relative to SHAM control; assay type: functional, organism-based
[17] = n-octanol-water partition coefficient, log P of the compound after 24 hrs by HPLC analysis; assay type: physicochemical
Mus musculus = experiment: Acute toxicity in ICR mouse assessed as survival at 5000 ug/kg, po after 2 weeks; assay type: organism-based; settings: in vivo, 5 mg/kg, 336 h
Estrogen receptor beta = Estrogen receptor beta (Homo sapiens, UniProt Q92731); experiment: Agonist activity at ERbeta (248 to 510 amino acid residues) (unknown origin) assessed as induction of interaction with SRC1 after 24 hrs by yeast two-hybrid assay
Estrogen receptor beta, sequence (Q92731 whole entry, the tested form may be a part): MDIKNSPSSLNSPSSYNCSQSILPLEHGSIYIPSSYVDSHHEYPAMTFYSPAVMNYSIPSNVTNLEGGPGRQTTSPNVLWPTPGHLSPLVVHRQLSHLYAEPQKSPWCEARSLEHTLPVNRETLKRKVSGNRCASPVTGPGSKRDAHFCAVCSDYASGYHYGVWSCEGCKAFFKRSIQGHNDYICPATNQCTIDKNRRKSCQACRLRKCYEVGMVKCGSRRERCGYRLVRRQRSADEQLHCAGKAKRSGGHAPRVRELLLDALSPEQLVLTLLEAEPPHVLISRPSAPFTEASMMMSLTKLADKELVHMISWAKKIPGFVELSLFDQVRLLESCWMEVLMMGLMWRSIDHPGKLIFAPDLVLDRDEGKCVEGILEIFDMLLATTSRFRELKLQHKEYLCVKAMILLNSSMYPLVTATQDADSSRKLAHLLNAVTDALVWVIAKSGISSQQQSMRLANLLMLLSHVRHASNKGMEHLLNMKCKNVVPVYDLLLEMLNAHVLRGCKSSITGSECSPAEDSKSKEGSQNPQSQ

**Q.** What does the source list for `O=C1c2cc(O)cc(O)c2[C@@H](c2ccc(O)cc2)[C@@H]1c1cc(O)cc(O)c1` [ISOPAUCIFLORAL F]?
**A.** Activity (Rattus norvegicus [1]): inactive; Activity (Rattus norvegicus [2]): 40.38%; Activity (Rattus norvegicus [3]): 35.56%; Activity (Rattus norvegicus [4]): 66.42%; Activity (Rattus norvegicus [5]): 0.083 mm; Activity (Rattus norvegicus [6]): 0.092 mm; Activity (Rattus norvegicus [7]): 0.082 mm; Activity (Rattus norvegicus [8]): 0.086 mm; Activity (Rattus norvegicus [9]): 0.102 mm; Activity (Rattus norvegicus [10]): 0.212 mm; Activity (Rattus norvegicus [11]): 0.104 mm; Activity (Rattus norvegicus [12]): 78%; Activity (Rattus norvegicus [13]): inactive; Activity (Rattus norvegicus [14]): 1156.07 ng/mL; Activity (Rattus norvegicus [15]): 713.24 ng/mL; Activity (Rattus norvegicus [16]): Active; logP at 24 h [17]: 1.34; Activity (Mus musculus): Non-toxic; EC50 (Estrogen receptor beta): 47 µM
